# Data as given in PMC10569036.
# Assay: shake flask on a mixture of 185; loss from the water phase only; LC-Orbitrap peak areas
# Conditions: room
SMILES,"log partition 1-octanol / HPLC water, unbuffered, traces of methanol / DMSO","log partition butyl acetate / HPLC water, unbuffered, traces of methanol / DMSO","log partition chloroform / HPLC water, unbuffered, traces of methanol / DMSO","log partition cyclohexane / HPLC water, unbuffered, traces of methanol / DMSO","log partition dichloromethane / HPLC water, unbuffered, traces of methanol / DMSO","log partition n-hexane / HPLC water, unbuffered, traces of methanol / DMSO","log partition n-octane / HPLC water, unbuffered, traces of methanol / DMSO","log partition n-undecane / HPLC water, unbuffered, traces of methanol / DMSO","log partition oleylalcohol / HPLC water, unbuffered, traces of methanol / DMSO","log partition toluene / HPLC water, unbuffered, traces of methanol / DMSO"
COC(=O)c1ccc(C(=O)OC)c(C(=O)OC)c1,1.294 log10,0.7248 log10,1.573 log10,1.164 log10,1.169 log10,0.9609 log10,1.205 log10,0.9207 log10,0.6631 log10,1.185 log10
FC(F)C(F)(F)OCC(Cn1cncn1)c1ccc(Cl)cc1Cl (stereo not shown),1.148 log10,1.223 log10,0.6534 log10,0.9109 log10,1.238 log10,0.4737 log10,0.5004 log10,0.1193 log10,0.4709 log10,1.159 log10
CCCN(CCC)c1c([N+](=O)[O-])cc(C(C)C)cc1[N+](=O)[O-],1.667 log10,0.7238 log10,0.1749 log10,-0.3058 log10,-0.415 log10,0.4636 log10,-0.4473 log10,-0.3356 log10,0.7657 log10,0.0275 log10
O=C1OC(=O)C2C3C=CC(C3)C12 (stereo not shown),-0.9913 log10,-0.2228 log10,0.8465 log10,-0.9247 log10,1.732 log10,-0.7252 log10,-1.742 log10,-1.577 log10,0.1202 log10,0.5941 log10
